In patent publication US20240033234A1, “THERAPEUTIC COMPOUNDS, FORMULATIONS, AND USE THEREOF” (Tvardi Therapeutics, Inc., priority 2022, published 2024):

Assay: 3-Month stability data for TTI-101 Batches B, C, D and E stored at 40° C./75% RH
Assay type: physicochemical
Experimental: Exemplary HPLC conditions: diluent was 0.1% trifluoroacetic acid (TFA) in acetonitrile, Mobile Phase A was 0.05% TFA in water, and Mobile Phase B was 0.05% TFA in acetonitrile, column (Agilent, Eclipse XDB-C18, 3.0×100 mm, particle size 1.8 μm), flow (0.425 mL/min), and detector (280 nm diode array).
Batches B, C, and D were prepared according to Method 5, Method 4, and Method 3, respectively, as described in Example 1. Batch E was prepared analogously using according to Method 1 as described in Example 1.
Samples of TTI-101 (Batches B, C, D, and E) were stored at 40° C./75% RH for 3 months. The batches were individually stored in an low density polyethylene (LDPE) bag enclosed with a Nylon cable tie and then transferred to another LDPE bag and enclosed with a Nylon cable tie. The enclosure was put into a high density polyethylene (HDPE) bottle and closed with a polyethylene-lined polypropylene cap. For Batch B only, another sample was enclosed in a screw-top amber glass bottle and closed with a cap. The samples were stored under the above-identified conditions.

Impurity RRT 0.84, Area % (0 M): NQ (≥0.02% and <0.05%)
Impurity RRT 0.87, Area % (0 M): NQ (≥0.02% and <0.05%)
Impurity RRT 1.06 (Cmp 4), Area % (0 M): NQ (≥0.02% and <0.05%)
Impurities Total, Area % (0 M, listed as Batch C): 0.4 Area %
Impurity RRT 0.99, Area % (0 M, listed as Batch C): 0.06 Area %
Impurity RRT 1.16 (Cmp 6), Area % (0 M, listed as Batch C): 0.31 Area %
Impurities Total, Area % (0 M, listed as Batch D): 0.1 Area %
Impurity RRT 1.16 (Cmp 6), Area % (0 M, listed as Batch D): 0.10 Area %
Impurities Total, Area % (0 M, listed as Batch E): 0.1 Area %
Impurity RRT 1.16 (Cmp 6), Area % (0 M, listed as Batch E): 0.10 Area %
Impurities Total, Area % (1 M, listed as Batch C): 0.1 Area %
Impurity RRT 0.99, Area % (1 M, listed as Batch C): NQ (≥0.02% and <0.05%)
Impurity RRT 1.17 (Cmp 6), Area % (1 M, listed as Batch C): 0.12 Area %
Impurities Total, Area % (1 M, listed as Batch D): 0.1 Area %
Impurity RRT 1.17 (Cmp 6), Area % (1 M, listed as Batch D): 0.09 Area %
Impurities Total, Area % (1 M, listed as Batch E): 0.1 Area %
Impurity RRT 0.99, Area % (1 M, listed as Batch E): NQ (≥0.02% and <0.05%)
Impurity RRT 1.17 (Cmp 6), Area % (1 M, listed as Batch E): 0.09 Area %
Impurity RRT 0.99, Area % (2 M): NQ (≥0.02% and <0.05%)
Impurity RRT 1.06 (Cmp 4), Area % (2 M): NQ (≥0.02% and <0.05%)
Impurities Total, Area % (2 M, listed as Batch C): 0.1 Area %
Impurity RRT 1.17 (Cmp 6), Area % (2 M, listed as Batch C): 0.13 Area %
Impurities Total, Area % (2 M, listed as Batch D): 0.1 Area %
Impurity RRT 1.17 (Cmp 6), Area % (2 M, listed as Batch D): 0.09 Area %
Impurities Total, Area % (2 M, listed as Batch E): 0.1 Area %
Impurity RRT 1.17 (Cmp 6), Area % (2 M, listed as Batch E): 0.09 Area %
Impurity RRT 0.95, Area % (3 M): NQ (≥0.02% and <0.05%)
Impurity RRT 0.98, Area % (3 M): NQ (≥0.02% and <0.05%)
Impurity RRT 1.06 (Cmp 4), Area % (3 M): NQ (≥0.02% and <0.05%)
Impurities Total, Area % (3 M, listed as Batch C): 0.3 Area %
Impurity RRT 1.16 (Cmp 6), Area % (3 M, listed as Batch C): 0.31 Area %
Impurities Total, Area % (3 M, listed as Batch D): 0.1 Area %
Impurity RRT 1.16 (Cmp 6), Area % (3 M, listed as Batch D): 0.11 Area %
Impurities Total, Area % (3 M, listed as Batch E): 0.2 Area %
Impurity RRT 1.16 (Cmp 6), Area % (3 M, listed as Batch E): 0.16 Area %
Purity (%) (T = 0 month (0 M), listed as Batch C): 99.6%
Purity (%) (T = 0 month (0 M), listed as Batch D): 99.9%
Purity (%) (T = 0 month (0 M), listed as Batch E): 99.9%
Purity (%) (T = 1 month (1 M), listed as Batch C): 99.8%
Purity (%) (T = 1 month (1 M), listed as Batch D): 99.9%
Purity (%) (T = 1 month (1 M), listed as Batch E): 99.9%
Purity (%) (T = 2 months (2 M), listed as Batch C): 99.8%
Purity (%) (T = 2 months (2 M), listed as Batch D): 99.9%
Purity (%) (T = 2 months (2 M), listed as Batch E): 99.9%
Purity (%) (T = 3 months (3 M), listed as Batch C): 99.6%
Purity (%) (T = 3 months (3 M), listed as Batch D): 99.9%
Purity (%) (T = 3 months (3 M), listed as Batch E): 99.8%
Compound: COc1ccc(S(=O)(=O)Nc2cc(-c3c(O)ccc4ccccc34)c(O)c3ccccc23)cc1 [TTI-101]
